Assay results reported in ChEMBL document CHEMBL5030565, “Stapled Peptides Targeting SARS-CoV-2 Spike Protein HR1 Inhibit the Fusion of Virus to Its Cell Receptor” (J Med Chem, 2021).
The source made the active and inactive calls. No cut-off for these calls is given here.

How the values were obtained:
SARS-CoV-2 [1] = test: Antiviral activity against pseudotyped SARS-CoV-2 infected in Huh7 cells expressing hACE2 at 10 uM preincubated for 1 hr followed by cell infection measured after 2 days by bright-Glo luciferase assay; format: functional, Severe acute respiratory syndrome coronavirus 2, Huh-7; settings: time 49 hrs
SARS-CoV-2 [2] = test: Antiviral activity against pseudotyped SARS-CoV-2 infected in Calu-3 cells at higher concentration; format: functional, organism-based; settings: Severe acute respiratory syndrome coronavirus 2
SARS-CoV-2 [3] = test: Antiviral activity against SARS-CoV-2 infected in Vero E6 cells assessed as reduction in viral replication at 12.5 uM preincubated for 30 mins followed by viral infection measured after 72 hrs by crystal violet staining based plaque assay; format: functional, Severe acute respiratory syndrome coronavirus 2; set-up: scale not given: the % may be the effect or the level left
SARS-CoV-2 [4] = test: Antiviral activity against pseudotyped SARS-CoV-2 infected in Huh7 cells expressing hACE2 preincubated for 1 hr followed by cell infection measured after 2 days by bright-Glo luciferase assay; format: functional, organism-based; settings: Severe acute respiratory syndrome coronavirus 2, Huh-7
SARS-CoV-2 [5] = test: Antiviral activity against SARS-CoV-2 infected in Vero E6 cells assessed as reduction in viral replication preincubated for 30 mins followed by viral infection measured after 72 hrs by crystal violet staining based plaque assay; format: functional, organism-based; settings: Severe acute respiratory syndrome coronavirus 2, Vero C1008
[6] = biological target: Spike glycoprotein (Severe acute respiratory syndrome coronavirus 2) (UniProt P0DTC2); test: Inhibition of SARS-CoV-2 spike glycoprotein expressed in HEK293T cells transfected with pAAV-CAG-HnCovS-RFP assessed as inhibition of membrane fusion to Huh-7 cells expressing hACE2 at 30 uM measured after 4 hrs by cell-cell fusion based fluorescence assay; format: functional
chymotrypsin = chymotrypsin (Homo sapiens, UniProt P17538+P40313+Q6GPI1+Q99895); test: Stability of the compound in PBS at pH 7.4 assessed as chymotrypsin (unknown origin)-mediated proteolysis by measuring remaining compound after 12 hrs by HPLC analysis; format: ADME, protein assay; settings: read-out: Stability

Row | SMILES | Activity (SARS-CoV-2 [1]) | Activity (SARS-CoV-2 [2]) | Activity (SARS-CoV-2 [3]) | EC50 (SARS-CoV-2 [4]) | EC50 (SARS-CoV-2 [5]) | inhibition [6] | remaining at 12 h (chymotrypsin)
1 | CC[C@H](C)[C@H](NC(=O)CNC(=O)[C@H](CO)NC(=O)[C@@H](NC(=O)[C@H](CC(=O)O)NC(C)=O)[C@@H](C)CC)C(=O)N[C@@H](CC(N)=O)C(=O)N[C@@H](C)C(=O)N[C@@H](CO)C(=O)N[C@H](C(=O)N[C@H](C(=O)N[C@@H](CC(N)=O)C(=O)N[C@H](C(=O)N[C@@H](CCC(N)=O)C(=O)N[C@@H](CCCCN)C(=O)N[C@@H](CCC(=O)O)C(=O)N[C@H](C(=O)N[C@@H](CC(=O)O)C(=O)N[C@@H](CCCNC(=N)N)C(=O)N[C@@H](CC(C)C)C(=O)N[C@@]1(C)CCC/C=C\CCC[C@@](C)(C(=O)N[C@@H](CC(N)=O)C(=O)N[C@@H](CC(C)C)C(=O)N[C@@H](CC(N)=O)C(=O)N[C@@H](CCC(=O)O)C(=O)N[C@@H](CO)C(=O)N[C@@H](CC(C)C)C(=O)N[C@H](C(=O)N[C@@H](CC(=O)O)C(=O)N[C@@H](CC(C)C)C(=O)N[C@@H](CCC(N)=O)C(=O)N[C@@H](CCC(=O)O)C(=O)N[C@@H](CC(C)C)C(N)=O)[C@@H](C)CC)NC(=O)[C@H](C)NC(=O)[C@H](C(C)C)NC(=O)[C@H](CCC(=O)O)NC1=O)[C@@H](C)CC)[C@@H](C)CC)C(C)C)C(C)C | 69.7% | Active | 55% | 4.05 µM | 6.56 µM | Active | > 80%
2 | CC[C@H](C)[C@H](NC(=O)CNC(=O)[C@H](CO)NC(=O)[C@@H](NC(=O)[C@H](CC(=O)O)NC(C)=O)[C@@H](C)CC)C(=O)N[C@@H](CC(N)=O)C(=O)N[C@@H](C)C(=O)N[C@@H](CO)C(=O)N[C@H](C(=O)N[C@H](C(=O)N[C@@H](CC(N)=O)C(=O)N[C@H](C(=O)N[C@@H](CCC(N)=O)C(=O)N[C@@H](CCCCN)C(=O)N[C@@H](CCC(=O)O)C(=O)NC1(C)CCC/C=C\CCCC(C)(C(=O)NC(CCC(=O)O)C(=O)N[C@H](C(=O)N[C@@H](C)C(=O)N[C@@H](CCCCN)C(=O)N[C@@H](CC(N)=O)C(=O)N[C@@H](CC(C)C)C(=O)N[C@@H](CC(N)=O)C(=O)N[C@@H](CCC(=O)O)C(=O)N[C@@H](CO)C(=O)N[C@@H](CC(C)C)C(=O)N[C@H](C(=O)N[C@@H](CC(=O)O)C(=O)N[C@@H](CC(C)C)C(=O)N[C@@H](CCC(N)=O)C(=O)N[C@@H](CCC(=O)O)C(=O)N[C@@H](CC(C)C)C(N)=O)[C@@H](C)CC)C(C)C)NC(=O)[C@H](CC(C)C)NC(=O)[C@H](CCCNC(=N)N)NC(=O)[C@H](CC(=O)O)NC1=O)[C@@H](C)CC)C(C)C)C(C)C (stereo not given in full) | 50.8% | – | 25% | 14.6 µM | – | – | –
